Measured values from patent US20050239656A1, “Pyridine compounds or salts thereof and herbicides containing the same” (priority 2002, published 2005).

Tests used:
redroot pigweed = test: Test Example 2: soil surface treatment, upland pot test; format: in vivo, Amaranthus retroflexus L.; conditions: active ingredient 500 g/ha, observed 20th to 28th day
From the text: (§1) Upland field soil was put into a 1/170,000 ha pot, and seed of various plants (barnyardgrass, crabgrass, green foxtail, redroot pigweed, prickly sida, velvetleaf, rice, wheat, corn, soybean) were sown. On the 1st day after the sowing, a wettable powder or emulsifiable concentrate having the compound of the present invention formulated in accordance with a usual formulation method, was weighed so that the active ingredient would be a predetermined amount, and diluted with water in an amount of 1,500 L/ha. The herbicide thus adjusted was applied by a small size sprayer for soil surface treatment. On the 20th to 28th days after the application of the herbicide, the growth of the respective plants was visually observed, and the herbicidal effects were evaluated by the growth controlling degrees (%) ranging from 0 (equivalent to the non-treated plot) to 100 (complete kill), whereby the results shown in Table 4, were obtained.

soybean = test: as above; format: in vivo, Glycine max Merr.; conditions: active ingredient 500 g/ha, observed 20th to 28th day
From the text: as §1

prickly sida = test: as above; format: in vivo, Sida spinosa L.; conditions: active ingredient 500 g/ha, observed 20th to 28th day
From the text: as §1

barnyardgrass [1] = test: as above; format: in vivo, Echinochloa crus-galli L.; conditions: active ingredient 500 g/ha, observed 20th to 28th day
From the text: as §1

crabgrass = test: as above; format: in vivo, Digitaria sanguinalis L.; conditions: active ingredient 500 g/ha, observed 20th to 28th day
From the text: as §1

velvetleaf = test: as above; format: in vivo, Abutilon theophrasti MEDIC.; conditions: active ingredient 500 g/ha, observed 20th to 28th day
From the text: as §1

rice = test: as above; format: in vivo, Oryza sativa L.; conditions: active ingredient 500 g/ha, observed 20th to 28th day
From the text: as §1

green foxtail = test: as above; format: in vivo, Setaria viridis L.; conditions: active ingredient 500 g/ha, observed 20th to 28th day
From the text: as §1

corn = test: as above; format: in vivo, Zea mays L.; conditions: active ingredient 500 g/ha, observed 20th to 28th day
From the text: as §1

rice (var. Nihonbare) = test: Test Example 3: paddy pot test, transplanted rice; format: in vivo, Oryza sativa L.; conditions: applied 4th day after transplantation, visually observed 21st day after application, 0 = non-treated, 100 = complete kill
From the text: (§2) Paddy field soil was put into a 1/1,000,000 ha pot, and seed of barnyardgrass and japanese bulrush were sown and slightly covered with soil. Then, the pot was left to stand still in a greenhouse in a state where the depth of flooding water was from 0.5 to 1 cm, and one day or two days later, tubers of japanese ribbon wapato were planted. Thereafter, the depth of flooding water was maintained at a level of from 3 to 4 cm, and when barnyardgrass and japanese bulrush reached a 0.5 leaf stage and japanese ribbon wapato reached a primary leaf stage, an aqueous diluted solution of a wettable powder or emulsifiable concentrate having the compound of the present invention formulated in accordance with a usual formulation method, was uniformly applied under submerged conditions by a pipette so that the dose of the active ingredient would be at a predetermined level. On the other hand, paddy field soil was put into a 1/1,000,000 ha pot and puddled and leveled, and the depth of flooding water was from 3 to 4 cm. Next day, rice (var. Nihonbare) of 2 leaf stage was transplanted in a depth of 3 cm. On the 4th day after the transplantation, the compound of the present invention was applied in the same manner as described above. On the 14 days after the application of the herbicide, the growth of barnyard grass, japanese burlrush and japanese ribbon wapato was visually observed and on the 21st day after the application of the herbicide, the growth of rice was visually observed, and the herbicidal effects were evaluated by the growth-controlling degrees (%) ranging from 0 (equivalent to the non-treated plot) to 100 (complete kill), whereby the results shown in Table 5 were obtained.

japanese bulrush = test: Test Example 3: paddy pot test, application under submerged conditions; format: in vivo, Scirpus juncoides; conditions: submerged application at 0.5 leaf stage, visually observed 14 days after application, 0 = non-treated, 100 = complete kill
From the text: as §2, with “the” for “the other hand, paddy field soil was put into a 1/1,000,000 ha pot and puddled and leveled, and the depth of flooding water was from 3 to 4 cm. Next day, rice (var. Nihonbare) of 2 leaf stage was transplanted in a depth of 3 cm. On the 4th day after the transplantation, the compound of the present invention was applied in the same manner as described above. On the”

barnyardgrass [2] = test: as above; format: in vivo, Echinochloa crus-galli L.; conditions: submerged application at 0.5 leaf stage, visually observed 14 days after application, 0 = non-treated, 100 = complete kill
From the text: as §2, with “the” for “the other hand, paddy field soil was put into a 1/1,000,000 ha pot and puddled and leveled, and the depth of flooding water was from 3 to 4 cm. Next day, rice (var. Nihonbare) of 2 leaf stage was transplanted in a depth of 3 cm. On the 4th day after the transplantation, the compound of the present invention was applied in the same manner as described above. On the”

japanese ribbon wapato = test: as above; format: in vivo, Sagittaria pygniaea; conditions: submerged application at primary leaf stage, visually observed 14 days after application, 0 = non-treated, 100 = complete kill
From the text: as §2, with “the” for “the other hand, paddy field soil was put into a 1/1,000,000 ha pot and puddled and leveled, and the depth of flooding water was from 3 to 4 cm. Next day, rice (var. Nihonbare) of 2 leaf stage was transplanted in a depth of 3 cm. On the 4th day after the transplantation, the compound of the present invention was applied in the same manner as described above. On the”

Compound | Growth controlling degree (%) Redroot pigweed (redroot pigweed) | Growth controlling degree (%) Soyabean (soybean) | Growth controlling degree (%) Prickly sida (prickly sida) | Growth controlling degree (%) Barnyardgrass (barnyardgrass [1]) | Growth controlling degree (%) Crabgrass (crabgrass) | Growth controlling degree (%) Velvetleaf (velvetleaf) | Growth controlling degree (%) Rice (rice) | Growth controlling degree (%) Green foxtail (green foxtail) | Growth controlling degree (%) Corn (corn) | Growth controlling degree (%) Rice (rice (var. Nihonbare); active ingredient 250 g/ha) | Growth controlling degree (%) Japanese bulrush (japanese bulrush; active ingredient 250 g/ha) | Growth controlling degree (%) Barnyardgrass (barnyardgrass [2]; active ingredient 250 g/ha) | Growth controlling degree (%) Japanese ribbon wapato (japanese ribbon wapato; active ingredient 250 g/ha) | Growth controlling degree (%) Rice (rice (var. Nihonbare); active ingredient 500 g/ha) | Growth controlling degree (%) Japanese ribbon wapato (japanese ribbon wapato; active ingredient 500 g/ha) | Growth controlling degree (%) Japanese bulrush (japanese bulrush; active ingredient 500 g/ha) | Growth controlling degree (%) Barnyardgrass (barnyardgrass [2]; active ingredient 500 g/ha)
CNC(=S)N(C)C(c1cnccc1C(F)(F)F)C(C)C (racemic) [Compound I-112] | 70% | 10% | 40% | 20% | 70% | 10% | 40% | 50% | 10% | – | – | – | – | – | – | – | –
CC(C)C(c1cnccc1C(F)(F)F)N(C)C(=O)SCc1ccccc1 (racemic) [I-113] | 70% | 10% | 60% | 60% | 70% | 60% | 30% | 95% | 20% | 0% | 30% | 95% | – | – | – | – | –
CC(C)C(c1cnccc1C(F)(F)F)N(C)C(=O)Cc1ccc(C(F)(F)F)cc1F (stereo not shown) [Compound I-105] | 60% | 10% | 80% | 70% | 98% | 10% | 10% | 100% | 30% | 20% | 80% | 100% | – | – | – | – | –
CC(C)C(c1cnccc1C(F)(F)F)N(C)C(=O)Nc1ccccc1 (stereo not shown) [Compound I-230] | 60% | 0% | 30% | 50% | 98% | 0% | 10% | 70% | 40% | – | – | – | – | – | – | – | –
CCN(C(=O)Cc1ccc(C)cc1)C(c1cnccc1C(F)(F)F)C(C)C (stereo not shown) [I-101] | 80% | 0% | 30% | 70% | – | 30% | 0% | 70% | 10% | 10% | 98% | 100% | 40% | – | – | – | –
CC(C)C(c1cnccc1C(F)(F)F)N(C)C(=O)CCl (stereo not shown) [I-168] | 100% | 20% | 70% | 100% | 98% | 0% | 98% | 98% | 10% | – | – | – | – | – | – | – | –
Cc1ccc(C=CC(=O)N(C)C(c2cnccc2C(F)(F)F)C(C)C)cc1 (stereo not shown) [I-181] | 40% | 0% | – | 30% | 98% | 30% | 40% | 95% | 10% | – | – | – | – | 10% | 60% | 98% | 95%
CC(C)C(c1cnccc1C(F)(F)F)N(C)C(=O)COc1cccc(Cl)c1 (stereo not shown) [I-247] | – | – | – | – | – | – | – | – | – | 0% | 95% | 100% | 0% | – | – | – | –
CC(C)C(c1cnccc1C(F)(F)F)N(C)C(=O)COc1ccc(Cl)cc1 (stereo not shown) [I-248] | – | – | – | – | – | – | – | – | – | 0% | 98% | 98% | 20% | – | – | – | –
CC(C)C(c1cnccc1C(F)(F)F)N(C)C(=O)COc1c(F)c(F)c(F)c(F)c1F (stereo not shown) [I-252] | – | – | – | – | – | – | – | – | – | 0% | 98% | 95% | 0% | – | – | – | –
CC(C)C(c1cnccc1C(F)(F)F)N(C)C(=O)COc1cc([N+](=O)[O-])c(Cl)cc1Cl (stereo not shown) [I-253] | – | – | – | – | – | – | – | – | – | 10% | 20% | 90% | 0% | – | – | – | –
